This note sets out measurements from patent US4666908A, “5-Substituted pyrazolo[4,3-d]pyrimidine-7-ones and methods of use” (Warner-Lambert Company, priority 1985, dated 1987).

In one experiment the test system is Type 3 Phosphodiesterase. Nature of the experiment: Phosphodiesterase (PDE) Inhibition, Type 3 Phosphodiesterase. The conditions noted are these: Type 3 PDE, at 10^-5 M, substrate 3H-cAMP 1.0 μM. It counts as biochemical, bovine (coronary arteries). The source says: (§1) The method of Thompson, et al (Thompson, W. J., Terasaki, W. L., Epstein, P. M., Strada, S. J., Adv. Cyclic Nucleotide Res., 10:69-92, 1979), with minor modifications, was used to isolate phosphodiesterases from vascular smooth muscle. Bovine coronary arteries (right, anterior descending, and left circumflex arteries) from hearts obtained from a local slaughterhouse were used for these studies. Arteries from two hearts were used for each isolation. Hearts were kept on ice and the arteries were dissected within two hours after the animals were sacrificed. After removing all fat and connective tissue, the arteries were everted, cut into cubes with a single edge razor blade and homogenized with a Brinkman Polytron three times at a rheostat setting of 10.0 in four volumes of the PDE isolation buffer (10 mM Tris-HCl/pH 7.5, 2 mM MgCl2, and 1 mM dithiothreitol). The resulting homogenate was sonicated (30 sec/ml homogenate) and then centrifuged at 30,000 xg for 20 minutes. This and all subsequent procedures were performed at 4° C. The resulting supernatant was filtered through four layers of gauze, and applied to a DEAE-cellulose column (30×1.5 cm), prepared as described by Cheung (Cheung, W. Y., Biochim. Biophys. Acta, 191:303-315, 1969), and equilibrated with freshly prepared 70 mM sodium acetate/5 mM 2-mercaptoethanol (pH 6.5). The column was then washed with 2-3 bed volumes of sodium acetate/2-mercaptoethanol, after which the phosphodiesterases were eluted from the column using a continuous 70-1,000 mM sodium acetate gradient (pH 6.5, containing 5 mM 2-mercaptoethanol; total volume 400 ml). The flow rate was approximately equal to 25 ml/hr. Eight ml fractions were collected and assayed for cyclic AMP- and cyclic GMP-phosphodiesterase activity in the presence and absence of 0.1 units of calmodulin and 10 mM CaCl2. Appropriate fractions were pooled and dialyzed against 70 mM sodium acetate/5 mM 2-mercaptoethanol for 20 hours.
(§2) Following complete separation, the combined phosphodiesterase fractions were concentrated to 14% of the original volume using an Amicon ultrafiltration cell fitted with a UM-10 membrane, according to the method of Wells, et al (Wells, J. N., Baird, C. E., Wu, Y. J., Hardman, J. G., Biochim. Biophys. Acta, 384:430-442, 1975). Following concentration, the protein was then diluted to 65% with ethylene glycol monoethyl ether, and stored at -20° C.
(§3) Phosphodiesterase activity was measured as described previously (Weishaar, P. E., Quade, M., Boyd, D., Schenden, J., Mark, S. S., Kaplan, H. R., Drug Devel. Res., 3:517-534, 1983), in a reaction medium containing 40 mM Tris-HCl (pH 8.0), 5 mM MgCl and 4 mM 2-mercaptoethanol. Unless otherwise noted, the concentration of substrate (^3 H-cyclic AMP or ^3 H-cyclic GMP) was 1.0 μM. All agents examined were dissolved in dimethyl sulfoxide (DMSO). Final concentration of the reaction medium was either 2.5% (cardiac and platelet studies) or 1.25% (smooth muscle studies). This concentration of DMSO produced an approximately 10% inhibition of enzyme activity.

Experiment [1] has as its system pentobarbital-anesthetized dog. Nature of the experiment: In Vivo Myocardial Inotropic Activity in Anesthetized Dog (CVAD). Details: species or system dog (adult mongrel). The conditions noted are these: for change in vivo at 3.1 mg/kg: 3.10 mg/kg IV; for change in vivo at 0.3 mg/kg: 0.30 mg/kg IV. As for the experimental part: This test procedure is described in the following paragraphs.
This screen consists of determining the effects of increasing intravenous doses of compound on mycardial contractility (dP/dt max of left ventricular blood pressure), heart rate, and aortic blood pressure of the pentobarbital-anesthetized dog.
Adult mongrel dogs of either sex are anesthetized with pentobarbital, 35 mg/kg, IV, and are subsequently maintained under anesthesia with a continuous infusion of pentobarbital, 3.5 mg/kg/hour. The trachea is intubated but the animals are permitted to breathe spontaneously. A cannula is inserted into the femoral vein for administrating test agents. A Millar catheter tip pressure transducer or a fluid filled catheter is inserted into the ascending aorta via the femoral artery for measuring aortic blood pressure. A Millar catheter tip pressure transducer is passed into the left ventricle via the left carotid artery for measuring left ventricular blood pressure. Needle electrodes are placed subcutaneously for recording a lead II electrocardiogram (ECG).
Left ventricular and aortic blood pressures are recorded on a strip chart recorder. Heart rate, using a biotachometer triggered from the R wave of the ECG, and the first derivative of left ventricular blood pressure (dP/dt), obtained with a differentiator amplifier coupled to the corresponding pressure amplifier, are also recorded. A period of at least 30 minutes is utilized to obtain control data prior to administration of test compound.
Ethanol or dimethylacetamide can be used as solvents if adequate dilutions can be made. Appropriate vehicle controls are administered when needed.
Each dose of the test compound is administered in a volume of […] over a period of one minute.

A further experiment concerns the target T1, adenosine A1 receptor (Rattus norvegicus, UniProt P25099).
T1 construct: Whole brain minus cerebellum and brainstem from male Long Evans rats; from tissue; host or cells: whole brain minus cerebellum and brainstem, male Long Evans rats (membranes)
T1 sequence (P25099 1-326): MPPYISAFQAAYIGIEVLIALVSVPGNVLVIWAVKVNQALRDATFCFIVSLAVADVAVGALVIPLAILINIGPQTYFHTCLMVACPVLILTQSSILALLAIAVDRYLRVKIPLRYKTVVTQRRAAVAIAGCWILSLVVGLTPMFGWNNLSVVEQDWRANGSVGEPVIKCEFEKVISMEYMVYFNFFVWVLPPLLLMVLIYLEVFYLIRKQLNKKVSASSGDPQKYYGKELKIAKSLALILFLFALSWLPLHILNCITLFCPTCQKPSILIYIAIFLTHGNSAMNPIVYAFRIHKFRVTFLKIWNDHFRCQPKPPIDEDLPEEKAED
Briefly: Adenosine Receptor Binding - A1 Receptor Affinity (RBA1), [3H]-N6-cyclohexyladenosine displacement. The conditions noted are these: [3H]-CHA 1.0 nM, rat brain membranes, 25° C., one hour; read-out: RBA-1, IC50 for adenosine A1 receptor affinity. As for the experimental part:
Whole brain minus cerebellum and brainstem from male Long Evans rats (150-200 g) was homogenized in 30 volumes of ice-cold 0.05M Tris-HCl buffer pH 7.7 using a Brinkman Polytron PT-10, (setting number 6 for 20 seconds) and centrifuged for ten minutes at 20,000×g (Sorvall RC-2), 4° C. The supernatant was discarded, and the pellet was resuspended and centrifuged as before. […] The homogenate was again centrifuged, and the final pellet was resuspended in ice-cold 0.05 M Tris-HCl buffer pH 7.7 to a concentration of 20 mg/ml original wet tissue weight and used immediately. […] Incubation volume was 2 ml. […] The filters were rinsed three times with 5 ml of ice cold 0.05 M Tris-HCl buffer pH 7.7. The radio-labeled ligand retained on the filter was measured by liquid scintillation spectrophotometry after shaking the filters for one hour or longer on a mechanical shaker in 10 ml of Beckman Ready-Solv HP scintillation cocktail. […] The Hill coefficient was calculated by linear regression of the line obtained by plotting the log of the bound radioligand vs the log of the [formula] The maximal number of binding sites (Bmax) was calculated from the Scatchard plot.

A further experiment has as its system Type 1 Phosphodiesterase. Nature of the experiment: Phosphodiesterase (PDE) Inhibition, Type 1 Phosphodiesterase. The conditions noted are these: Type 1 PDE, at 10^-5 M; for % Inhibition of hydrolysis of 3H-cAMP: substrate 3H-cAMP 1.0 μM; for % Inhibition of hydrolysis of 3H-cGMP: substrate 3H-cGMP 1.0 μM. It counts as biochemical, bovine (coronary arteries).
Description: as §1, §2, §3

Setting [2] is: Canis lupus familiaris, iv, 0.10 mg/kg IV, read-out: Percent Change Heart Rate.
Setting [3] is: Canis lupus familiaris, iv, 0.10 mg/kg IV, read-out: Percent Change Myocardial Contractility.
Setting [4] is: Canis lupus familiaris, iv, 0.31 mg/kg IV, read-out: Percent Change Heart Rate.
Where [5] appears, read: Canis lupus familiaris, iv, 0.31 mg/kg IV, read-out: Percent Change Myocardial Contractility.
The mark [6] stands for this setting: Canis lupus familiaris, iv, 1.00 mg/kg IV, read-out: Percent Change Heart Rate.
The mark [7] stands for this setting: Canis lupus familiaris, iv, 1.00 mg/kg IV, read-out: Percent Change Myocardial Contractility.
Setting [8] is: Canis lupus familiaris, iv, read-out: Percent Change Heart Rate.
[9] abbreviates: Canis lupus familiaris, iv, read-out: Percent Change Myocardial Contractility.
[10] abbreviates: Canis lupus familiaris, iv, read-out: Percent Change Blood Pressure.

SMILES strings stand for the structures. Like-named read-outs stand apart in the source and are kept apart here.

For the compound `Cc1nn(C)c2c(=O)[nH]c(-c3ccc(N)cc3)nc12` [Example 11, 1,3-Dimethyl-5-(4-aminophenyl)pyrazolo[4,3-d]pyrimidine-7-one], the “% Inhibition of hydrolysis of 3H-cAMP” value was found to be 32% in the experiment with Type 3 Phosphodiesterase and 19% with Type 1 Phosphodiesterase. For the same compound, the “Percent Change Blood Pressure” value in experiment [1] (0.10 mg/kg IV) is reported as 1/1; in experiment [1] (0.31 mg/kg IV), 5/3; in experiment [1] (1.00 mg/kg IV), 1/0. For the same compound, the results for the change in vivo at 0.1 mg/kg in experiment [1] (setting [2]) and in experiment [1] (setting [3]) were 1% and 9%, respectively. Also, the change in vivo at 0.31 mg/kg in experiment [1] (setting [4]) is 3%; in experiment [1] (setting [5]), 17%. The change in vivo at 1 mg/kg in experiment [1] (setting [6]) came to 5%; in experiment [1] (setting [7]) it was 25%. In addition, the change in vivo at 3.1 mg/kg was 15% in experiment [1] (setting [8]) and 66% in experiment [1] (setting [9]). Further, at adenosine A1 receptor, the IC50 turned out to be 385 nM. The “% Inhibition of hydrolysis of 3H-cGMP” value with Type 1 Phosphodiesterase is 15%.

Regarding `Cc1nn(C)c2c(=O)[nH]c(-c3cccc([N+](=O)[O-])c3)nc12` [Example 13, 1,3-Dimethyl-5-(3-nitrophenyl)pyrazolo[4,3-d]pyrimidine-7-one], the “% Inhibition of hydrolysis of 3H-cAMP” value in the experiment with Type 3 Phosphodiesterase was 50%; in the experiment with Type 1 Phosphodiesterase it was 30%. The change in vivo at 0.1 mg/kg was -2% in experiment [1] (Canis lupus familiaris, iv, 0.10 mg/kg IV, read-out: Percent Change Blood Pressure); 2% in experiment [1] (setting [2]); 6% in experiment [1] (setting [3]). Also, the change in vivo at 0.3 mg/kg in experiment [1] (setting [10]) is -4%; in experiment [1] (setting [8]), 4%; in experiment [1] (setting [9]), 5%. In addition, the change in vivo at 1 mg/kg is -7% in experiment [1] (Canis lupus familiaris, iv, 1.00 mg/kg IV, read-out: Percent Change Blood Pressure); -3% in experiment [1] (setting [6]); -7% in experiment [1] (setting [7]). Further, the change in vivo at 3.1 mg/kg in experiment [1] (setting [10]) is -12%; in experiment [1] (setting [8]), -3%; in experiment [1] (setting [9]) it was 6%. For the same compound, the change in vivo at 10 mg/kg in experiment [1] (Canis lupus familiaris, iv, 10.00 mg/kg IV, read-out: Percent Change Myocardial Contractility) stood at 101%. Besides, on adenosine A1 receptor, the IC50 stood at 1200 nM. Moreover, the “% Inhibition of hydrolysis of 3H-cGMP” value with Type 1 Phosphodiesterase is reported as 18%.

On to `Cc1nn(C)c2c(=O)[nH]c(-c3ccccc3)nc12` [Example 6, 1,3-Dimethyl-5-phenylpyrazolo[4,3-d]pyrimidine-7-one], for which the results for the “% Inhibition of hydrolysis of 3H-cAMP” value in the experiment with Type 3 Phosphodiesterase and in the experiment on Type 1 Phosphodiesterase were 35% and 6%, respectively. For the same compound, the change in vivo at 0.1 mg/kg in experiment [1] (setting [2]) was -1%; in experiment [1] (setting [3]), 4%. The change in vivo at 0.31 mg/kg in experiment [1] (setting [4]) is -4%; in experiment [1] (setting [5]), 3%. The values for the change in vivo at 1 mg/kg in experiment [1] (setting [6]) and in experiment [1] (setting [7]) were 7% and 20%, respectively. The change in vivo at 3.1 mg/kg in experiment [1] (setting [8]) worked out at 37%; in experiment [1] (setting [9]) it was 45%. Further, the IC50 on adenosine A1 receptor was determined as 1020 nM. The “% Inhibition of hydrolysis of 3H-cGMP” value in the experiment with Type 1 Phosphodiesterase is listed as 14%.

On to `Cc1nn(C)c2c(=O)[nH]c(-c3cccc(N)c3)nc12` [Example 12, 1,3-Dimethyl-5-(3-aminophenyl)pyrazolo[4,3-d]pyrimidine-7-one], for which the “% Inhibition of hydrolysis of 3H-cAMP” value with Type 3 Phosphodiesterase is 33%; with Type 1 Phosphodiesterase, 6%. The figures for the change in vivo at 0.1 mg/kg in experiment [1] (setting [2]) and in experiment [1] (setting [3]) were -8% and -1%, respectively. Also, the change in vivo at 0.31 mg/kg in experiment [1] (setting [4]) is -10%; in experiment [1] (setting [5]) it was -19%. Besides, the change in vivo at 1 mg/kg in experiment [1] (setting [6]) is -8%; in experiment [1] (setting [7]) it was -12%. Besides, the IC50 at adenosine A1 receptor was determined as 1540 nM. Besides, the “% Inhibition of hydrolysis of 3H-cGMP” value with Type 1 Phosphodiesterase came to 9%.

For `COc1ccc(-c2nc3c(C)nn(C)c3c(=O)[nH]2)cc1OC` [Example 16, 1,3-Dimethyl-5-(3,4-dimethoxyphenyl)pyrazolo[4,3-d]pyrimidine-7-one], the “% Inhibition of hydrolysis of 3H-cAMP” value in the experiment on Type 3 Phosphodiesterase worked out at 17%; in the experiment on Type 1 Phosphodiesterase, 10%. Further, the entries for the “Percent Change Blood Pressure” value in experiment [1] (0.31 mg/kg IV) and in experiment [1] (1.00 mg/kg IV) were 1/3 and 1/2, respectively. The change in vivo at 0.1 mg/kg in experiment [1] (setting [2]) turned out to be 1%; in experiment [1] (setting [3]) it was 2%. Moreover, the change in vivo at 0.31 mg/kg in experiment [1] (setting [4]) and in experiment [1] (setting [5]) was -1% in each case. Moreover, the figures for the change in vivo at 1 mg/kg in experiment [1] (setting [6]) and in experiment [1] (setting [7]) were -2% and -1%, respectively. At adenosine A1 receptor, the IC50 was determined as 1920 nM. Besides, in the experiment on Type 1 Phosphodiesterase, the “% Inhibition of hydrolysis of 3H-cGMP” value was determined as 17%.

The term IC50 denotes the midpoint of a concentration-inhibition curve.
